# Assay results: paper PMC9046087, “Structural basis of tethered agonism of the adhesion GPCRs ADGRD1 and ADGRF1” (Nature, 2022)
# Ends that are not written are not given here.
# Legend:
# Assay in all cases: BRET assay using TRUPATH biosensors, Gi activation of ADGRF1
# Assay type in all cases: cell-based
# [1] = biological target: T1, ADGRF1 (Homo sapiens, UniProt Q5T601, W734A); details: ADGRF1 W734^ECL2A
# T1 construct: Flag (N); expressed in transfected cells; host or cells: HEK293F
# Description: (§1) To study the synthetic stalk peptide-induced G protein activation of ADGRD1 and ADGRF1, a BRET assay using TRUPATH biosensors was conducted to measure the proximal interaction between RLuc8 fused to the Gα subunit and GFP2 fused to the Gγ subunit. The TRUPATH suite of biosensors was obtained from Addgene (Addgene kit no. 1000000163) as a gift from B. Roth, including GαsS-RLuc8, Gαi1-RLuc8, Gβ3 and Gγ9-GFP2 as previously described.
# (§2) The wild-type or mutant ADGRD1 and ADGRF1 were transiently co-transfected with plasmids encoding Gα-RLuc8 (GαsS-RLuc8 for Gs activation assay; Gαi1-RLuc8 for Gi activation assay), Gβ3 and Gγ9-GFP2 at a ratio of 2:1:1:1 (receptor plasmid, 800 ng; G protein subunit plasmids, 400 ng for each) in 2 ml HEK293F cells at a density of 1.2 × 10^6 cells per ml. Cell cultivation and receptor surface expression measurement were performed as described above. The cells were plated into 96-well white plates (40,000 cells per well) in 60 μl of assay buffer and incubated at 37 °C for 30 min. Then 10 μl of freshly prepared 50 μM coelenterazine 400a (Nanolight Technologies) was added. […] The cells were stimulated with 30 μl of synthetic stalk peptide at different concentrations and the BRET signals were monitored continuously five times. The last measurements were used in data analysis. The BRET ratios were calculated as the ratio of the GFP2 emission to RLuc8 emission.
# [2] = biological target: T2, ADGRF1 (Homo sapiens, UniProt Q5T601, V585A); details: ADGRF1 V585^1.36bA
# T2 construct: Flag (N); expressed in transfected cells; host or cells: HEK293F
# Description: as §1, §2
# [3] = biological target: T3, ADGRF1 (Homo sapiens, UniProt Q5T601, L681H); details: ADGRF1 L681^3.53bH
# T3 construct: Flag (N); expressed in transfected cells; host or cells: HEK293F
# Description: as §1, §2
# [4] = biological target: T4, ADGRF1 (Homo sapiens, UniProt Q5T601, L681E); details: ADGRF1 L681^3.53bE
# T4 construct: Flag (N); expressed in transfected cells; host or cells: HEK293F
# Description: as §1, §2
# [5] = biological target: T5, ADGRF1 (Homo sapiens, UniProt Q5T601, G702Y); details: ADGRF1 G702^4.45bY, n = 3
# T5 construct: Flag (N); expressed in transfected cells; host or cells: HEK293F
# Description: as §1, §2
# [6] = biological target: T6, ADGRF1 (Homo sapiens, UniProt Q5T601, L764A); details: ADGRF1 L764^5.56bA, n = 3
# T6 construct: Flag (N); expressed in transfected cells; host or cells: HEK293F
# Description: as §1, §2
# [7] = biological target: T7, ADGRF1 (Homo sapiens, UniProt Q5T601, M675A); details: ADGRF1 M675^3.47bA
# T7 construct: Flag (N); expressed in transfected cells; host or cells: HEK293F
# Description: as §1, §2
# [8] = biological target: T8, ADGRF1 (Homo sapiens, UniProt Q5T601, F823A); details: ADGRF1 F823^7.42bA
# T8 construct: Flag (N); expressed in transfected cells; host or cells: HEK293F
# Description: as §1, §2
# [9] = biological target: T9, ADGRF1 (Homo sapiens, UniProt Q5T601, V732A); details: ADGRF1 V732^ECL2A, n = 3
# T9 construct: Flag (N); expressed in transfected cells; host or cells: HEK293F
# Description: as §1, §2
# [10] = biological target: T10, ADGRF1 (Homo sapiens, UniProt Q5T601, W804A); details: ADGRF1 W804^6.53bA
# T10 construct: Flag (N); expressed in transfected cells; host or cells: HEK293F
# Description: as §1, §2
# [11] = biological target: T11, ADGRF1 (Homo sapiens, UniProt Q5T601, K791A); details: ADGRF1 K791^6.40bA
# T11 construct: Flag (N); expressed in transfected cells; host or cells: HEK293F
# T11 sequence (Q5T601 20-910 K791A): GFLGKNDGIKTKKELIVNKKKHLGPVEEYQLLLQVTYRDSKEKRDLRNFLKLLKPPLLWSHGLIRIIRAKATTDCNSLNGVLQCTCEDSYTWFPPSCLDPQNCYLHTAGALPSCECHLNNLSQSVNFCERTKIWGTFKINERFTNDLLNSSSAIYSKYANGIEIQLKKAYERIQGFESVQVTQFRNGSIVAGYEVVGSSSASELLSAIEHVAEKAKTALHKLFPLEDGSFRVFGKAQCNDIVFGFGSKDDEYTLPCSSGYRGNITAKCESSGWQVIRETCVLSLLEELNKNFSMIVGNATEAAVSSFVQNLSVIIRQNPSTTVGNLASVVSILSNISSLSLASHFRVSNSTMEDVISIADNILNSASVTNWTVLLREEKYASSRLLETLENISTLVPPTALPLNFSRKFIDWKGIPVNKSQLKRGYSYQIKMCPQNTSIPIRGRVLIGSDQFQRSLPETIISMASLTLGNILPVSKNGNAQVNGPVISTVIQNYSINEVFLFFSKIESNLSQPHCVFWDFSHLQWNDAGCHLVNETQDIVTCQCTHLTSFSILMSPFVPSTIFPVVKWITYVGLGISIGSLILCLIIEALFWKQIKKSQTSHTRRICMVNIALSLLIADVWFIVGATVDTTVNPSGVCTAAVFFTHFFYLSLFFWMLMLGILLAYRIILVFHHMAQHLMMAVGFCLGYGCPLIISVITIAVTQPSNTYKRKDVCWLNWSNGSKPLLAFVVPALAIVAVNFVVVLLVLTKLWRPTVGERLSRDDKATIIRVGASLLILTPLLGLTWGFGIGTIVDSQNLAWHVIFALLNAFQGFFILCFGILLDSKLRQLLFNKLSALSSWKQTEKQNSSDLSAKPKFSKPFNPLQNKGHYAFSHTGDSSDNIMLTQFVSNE
# Description: as §1, §2
# [12] = biological target: T12, ADGRF1 (Homo sapiens, UniProt Q5T601, L799A); details: ADGRF1 L799^6.48bA
# T12 construct: Flag (N); expressed in transfected cells; host or cells: HEK293F
# Description: as §1, §2
# [13] = n = 3, read-out: pEC50 (mean ± s.e.m.) (converted)
# [14] = n = 4, read-out: pEC50 (mean ± s.e.m.) (converted)
# T5 sequence (Q5T601 20-910 G702Y): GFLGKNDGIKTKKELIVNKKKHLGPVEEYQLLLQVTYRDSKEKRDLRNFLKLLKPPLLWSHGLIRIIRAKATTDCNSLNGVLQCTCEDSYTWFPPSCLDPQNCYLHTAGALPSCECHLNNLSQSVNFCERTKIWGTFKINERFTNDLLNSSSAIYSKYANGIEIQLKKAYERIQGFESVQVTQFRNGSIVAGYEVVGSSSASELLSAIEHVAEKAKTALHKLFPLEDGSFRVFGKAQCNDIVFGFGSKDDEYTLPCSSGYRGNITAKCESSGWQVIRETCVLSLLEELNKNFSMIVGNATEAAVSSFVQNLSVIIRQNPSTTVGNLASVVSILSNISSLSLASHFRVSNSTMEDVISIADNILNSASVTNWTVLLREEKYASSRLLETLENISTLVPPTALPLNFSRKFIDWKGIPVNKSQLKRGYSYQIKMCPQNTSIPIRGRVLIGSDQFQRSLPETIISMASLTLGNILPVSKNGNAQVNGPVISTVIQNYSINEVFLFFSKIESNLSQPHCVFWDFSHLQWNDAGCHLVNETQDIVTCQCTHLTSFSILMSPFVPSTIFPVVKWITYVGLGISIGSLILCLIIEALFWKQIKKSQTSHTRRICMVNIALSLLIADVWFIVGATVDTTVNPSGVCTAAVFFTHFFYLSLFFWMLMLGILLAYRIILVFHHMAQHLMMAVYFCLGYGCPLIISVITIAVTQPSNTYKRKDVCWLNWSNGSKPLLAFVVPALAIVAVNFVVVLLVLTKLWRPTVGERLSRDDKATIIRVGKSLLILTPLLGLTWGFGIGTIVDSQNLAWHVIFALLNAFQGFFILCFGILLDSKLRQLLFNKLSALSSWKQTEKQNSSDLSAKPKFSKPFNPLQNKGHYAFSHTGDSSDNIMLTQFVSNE
# T7 sequence (Q5T601 20-910 M675A): as the sequence (Q5T601 20-910 G702Y) above, with M656A, Y683G counted along it
# T9 sequence (Q5T601 20-910 V732A): as the sequence (Q5T601 20-910 G702Y) above, with Y683G, V713A counted along it
# T8 sequence (Q5T601 20-910 F823A): as the sequence (Q5T601 20-910 G702Y) above, with Y683G, F804A counted along it
# T1 sequence (Q5T601 20-910 W734A): as the sequence (Q5T601 20-910 G702Y) above, with Y683G, W715A counted along it
# T12 sequence (Q5T601 20-910 L799A): as the sequence (Q5T601 20-910 G702Y) above, with Y683G, L780A counted along it
# T6 sequence (Q5T601 20-910 L764A): as the sequence (Q5T601 20-910 G702Y) above, with Y683G, L745A counted along it
# T4 sequence (Q5T601 20-910 L681E): as the sequence (Q5T601 20-910 G702Y) above, with L662E, Y683G counted along it
# T10 sequence (Q5T601 20-910 W804A): as the sequence (Q5T601 20-910 G702Y) above, with Y683G, W785A counted along it
# T3 sequence (Q5T601 20-910 L681H): as the sequence (Q5T601 20-910 G702Y) above, with L662H, Y683G counted along it
# T2 sequence (Q5T601 20-910 V585A): as the sequence (Q5T601 20-910 G702Y) above, with V566A, Y683G counted along it
sequence,measurement,setting,value
TSFSILMSPFVP [pF1],Emax (mean ± s.e.m.),[1]; n = 3,60 ± 11 % of WT
same,EC50,[1]; [13],138 nM
same,Emax (mean ± s.e.m.),[2]; n = 3,84 ± 8 % of WT
same,EC50,[2]; [13],437 nM
same,Emax (mean ± s.e.m.),[3]; n = 4,103 ± 13 % of WT
same,EC50,[3]; [14],347 nM
same,Emax (mean ± s.e.m.),[4]; n = 3,130 ± 12 % of WT
same,EC50,[4]; [13],794 nM
same,EC50,[5],1170 nM
same,Emax (mean ± s.e.m.),[5],94 ± 16 % of WT
same,EC50,[6],1300 nM
same,Emax (mean ± s.e.m.),[6],86 ± 14 % of WT
same,Emax (mean ± s.e.m.),[7]; n = 3,81 ± 13 % of WT
same,EC50,[7]; [13],427 nM
same,Emax (mean ± s.e.m.),[8]; n = 3,90 ± 14 % of WT
same,EC50,[8]; [13],316 nM
same,EC50,[9],1950 nM
same,Emax (mean ± s.e.m.),[9],73 ± 13 % of WT
same,Emax (mean ± s.e.m.),[10]; n = 4,86 ± 19 % of WT
same,EC50,[10]; [14],977 nM
same,Emax (mean ± s.e.m.),[11]; n = 3,102 ± 13 % of WT
same,EC50,[11]; [13],102 nM
same,Emax (mean ± s.e.m.),[12]; n = 3,109 ± 11 % of WT
same,EC50,[12]; [13],380 nM
